Assays:
MDS PBMC = test: LPS-induced TNFα production by MDS PBMC; assay type: cell-based, human; settings: MDS PBMC (n=7), 1 μM lenalidomide 30 minutes prior to LPS (1 μg/ml), 24 h
non-del(5q) MDS patients = test: Erythroid response to ESA or lenalidomide treatment by serum TNFα / S100A9 concentration; assay type: in vivo, human
Text: (§1) Serum samples used for ELISA analysis were collected from 4 centers (Taussig Cancer Institute in Cleveland; AOU Careggi, University of Firenze; Saint Louis hospital in Paris; H. Lee Moffitt Cancer Center in Tampa). Peripheral blood mononuclear cells (PBMC) were collected from patients seen at Moffitt Cancer Center All patients were consented on Institutional Review Boards, or equivalent, approved protocols in hematology clinics at each center, and from the Eastern Cooperative Oncology Group (ECOG) E2905 trial (NCT00843882). All routine clinical and biological data were available.
Data are expressed as mean±standard error for continuous variables, or percentage of total for non-continuous variables. Spearman's correlation, Mann-Withney and Jonckheere-Terpstra tests were used for analysis of continuous variables. Chi-square test was used for analysis of non-continuous variables. Differences between the results of comparative tests were considered significant if the two-sided p-value was less than 0.05. All statistical analyses were performed using SPSS v.22 software (IBM SPSS Statistics).

NF-κB = test: Cytoplasmic and nuclear NF-κB western blotting in HepG2 cells; assay type: cell-based, human; settings: HepG2, 24 h, 1 μM lenalidomide pre-incubation, then S100A9 or TNFα
Method: After treatment for 24 h, cells were harvested and lysed in 1×RIPA buffer supplemented with protease and phosphatase inhibitors for classical western blotting. For the nuclear extraction, cells were lysed in ice with buffer A, then pelleted. After removed supernatant (cytoplasmic fraction), pellets were lysed in ice with buffer B and pelleted (nuclear fraction) (Nuclear extraction kit, Abcam, Cambridge, USA). Lysates were pelleted and 50 μg of protein was resolved by SDS-PAGE and transferred to PVDF membranes. The membranes were blocked for 30 min in 5% non-fat dry milk solution in PBST (PBS with 0.1% Tween 20) and incubated with the indicated antibodies. Membranes were developed using ECL according to the manufacturer's protocol (GE Healthcare, Little Chalfont, UK). Densitometry analysis was performed using Image J Software.

MDS patients = settings: cited from earlier work
HepG2 cells [1] = test: Epo elaboration by HepG2 cells (ELISA); assay type: cell-based, human
Method: HepG2 cells, acquired from American Type Culture Collection (ATCC, Manassas, Va.), were grown in EMEM supplemented with 10% FBS and 1% penicillin/streptomycin solution. Cells were maintained at 37° C. under 5% CO2.
(§2) Quantitation of human S100A9/MRP14 in patient serum and supernatant of the HepG2 cell line was performed using CircuLex S100A9/MRP14 ELISA Kit (MBL, Nagano, Japan). Quantitative measurement of human TNFα and IL-1β from serum patients and supernatant of HepG2 cell line were performed using Human IL-1β ELISA Kit and Human TNFα ELISA Kit (Life Technologies, Carlsbad, Calif., USA). Quantitation of human Epo in patient serum and HepG2 cell line supernatant was performed using Human Erythropoietin ELISA kit (Stemcell Technologies, Vancouver, BC, Canada). All samples were performed in duplicate.

HepG2 cells [2] = test: IL10 mRNA qPCR in HepG2 cells; assay type: cell-based, human
Method: RNA was isolated using the RNAeasy Mini Kit (Qiagen, Valencia, Calif., USA) followed by iScript cDNA synthesis (Bio-Rad, Hercules, Calif., USA) and amplification using iQ SYBR Green Supermix (Bio-Rad, Herculed, Calif., USA). The relative level of gene expression for each experimental sample was calculated by the ΔΔCt method. Untreated cells were the experimental control and the housekeeping gene GAPDH was the endogenous control.

[3] = tested on: PBMC isolated from non-del(5q) MDS patients; test: S100A9 production by PBMC from MDS patients (ELISA); assay type: cell-based, human; settings: PBMC from MDS patients (n=7), 1 μM lenalidomide, 24 hours
Method: as §2, §1

[4] = lenalidomide or lenalidomide + Epo

SMILES: Nc1cccc2c1CN(C1CCC(=O)NC1=O)C2=O (centres unmarked) [lenalidomide, Lenalidomide]
- TNFα production induced by LPS (MDS PBMC): significantly reduced
- erythroid response rate, high (above the median) serum TNFα (non-del(5q) MDS patients; [4]): 14%
- erythroid response rate, low (below the median) serum TNFα (non-del(5q) MDS patients; [4]): 64%
- erythroid response rate, high TNFα and low S100A9 (non-del(5q) MDS patients; lenalidomide treatment): 12%
- erythroid response rate, low TNFα and high S100A9 concentrations (non-del(5q) MDS patients; lenalidomide treatment): 62%
- NF-κB in nuclear fractions (NF-κB): significant reduction
- response in patients with an interstitial deletion of Chromosome 5q (MDS patients; MDS patients with del 5q): high rate of response
- patients without 5q deletions who benefit from therapy (MDS patients; MDS patients without 5q deletions): Approximately 25%
- effect on IL-1β-directed suppression of Epo elaboration (HepG2 cells [1]; HepG2, 1 μM lenalidomide 30 minutes prior to IL-1β (10 ng/ml)): no effect
- suppression of Epo production by S100A9 after lenalidomide pre-incubation (HepG2 cells [1]; HepG2, 1 μM lenalidomide 30 minutes prior to S100A9 (1 μg/ml)): 65%
- suppression of Epo elaboration by TNFα after lenalidomide pre-incubation (HepG2 cells [1]; HepG2, 1 μM lenalidomide 30 minutes prior to TNFα (10 ng/ml)): 0%
- IL10 gene message following IL-1β treatment (HepG2 cells [2]; HepG2, 1 μM lenalidomide pre-incubation): no modulatory effect
- IL10 mRNA expression compared to S100A9 or TNFα treatment alone (HepG2 cells [2]; HepG2, 24 h, 1 μM lenalidomide 30 minutes prior to S100A9 (1 μg/ml) or TNFα (10 ng/ml)): significantly increased
- S100A9 elaboration [3]: significant reduction
